As a reminder, the Kd is the constant that tells how readily two partners part at equilibrium.

Bounds are passed on as bounds.

The conditions of series [1]: Zn^2+ complexation; cited from earlier work.
The test system of the next series is apoptotic liver. The experiment in a line: Biodistribution after induction of hepatic apoptosis with Cycloheximid. The format is in vivo, male Balb/c mice. As to conditions: i.v., 3.5 h after induction of hepatic apoptosis. The protocol:
The biodistribution was performed in male Balb/c mice (6-8 weeks, body weight approx. 20 g). Hepatic apoptosis were induced by intraperitoneal injection of Cycloheximid ([…] in 500 μL PBS) (J. F. Tait, C. Smith, Z. Levashova, B. Patel, F. G. Blankenberg, J. Vanderheyden, J. Nucl. Med. 2006, 47, 1546). 1.5 h and 3.5 h after induction of hepatic apoptosis the 18F-labeled compound was injected i.v. (1-2 MBq in 100 μL PBS). The organ distribution was done after 30 min, 1 h, 2 h and 3 h. The amount of 18F-compound was determined by gamma counter.

Series [2] relates to adenocarcinoma (Prostata) R3327-ATI. The experiment in a line: PET imaging in radiation tumor model. The format is in vivo, Male Copenhagen rats. The following applies: day 6 and day 10 after 50 Gy radiation, i.v. The source says:
The PET images were obtained using a radiation model. Male Copenhagen rats with approx. 180 g body weight were transplanted with the hormone independent adenocarcinoma (Prostata) R3327-ATI on the left and right upper leg. The left tumor, as it reached a size of 3.5 cm^3 was radiated by linear particle accelerator with a single dosis of 50 Gy, whereas the right tumor served as control.
One day prior to the radiation as well as 6 and 10 d after radiation, the 18F-compound 19 (15-25 MBq in ca. 200 μL PBS) was injected i.v. and PET-aquisition with 1 h dynamic PET measurements were performed.

Series [3] relates to Jurkat cells induced with staurosporin. The experiment in a line: Confocal microscopy on apoptosis induced Jurkat cells. The format is cell-based. As to conditions: 5 μM compound, 15 min at RT. How it is done: In order to verify the FACS data with visual data confocal microscopy was performed. Confocal microscopy was also performed on Jurkat cells and apoptosis was induced by incubating 10^6 cells/ml in 1 μM staurosporin for 4 h (Stepczynska A et al, Staurosporine and conventional anticancer drugs induce overlapping, yet distinct pathways of apoptosis and caspase activation Oncogene (2001) 20, 1193). The experiments were also carried out in TES-buffer. For compound binding 10^6 cells (either induced with staurosporin or non-induced) were incubated for 15 min at RT in 100 μl cold TES buffer with a final concentration of 5 μM compound, then the cells were fixed onto polylysine coated slides and shortly incubated with propidium iodine (PI).

In series [4] the test system is staurosporine treated Jurkat cells. In words: FACS flow cytometry, apoptosis detection on staurosporine treated Jurkat cells with propidium iodide discrimination. As to conditions: for labeling pattern in direct comparison with Annexin-V: apoptosis induced Jurkat cells, co-incubation, FIG. 10. Format: cell-based. From the text: Flow cytometry is a technology for counting and examining cells which pass in a flow of single cells through a laser beam. The laser light scatter provides information about cell features. The forward scatter (FSC) depends basically on the size of the cell, whereas the side scatter (SSC) is used to measure the granularity of the cell. Furthermore, if the cells carry fluorescence dyes, the respective fluorescence signal can be detected.
Flow cytometry is a widely applied technique in cell biology. Especially in the research of cell death mechanisms it is a standard procedure to count and differentiate between apoptotic, necrotic and healthy cells. For the detection of apoptosis the protein Annexin V is applied which is usually attached to a green fluorescence dye. Because Annexin V can also bind to necrotic cells, the red fluorescent nuclear stain propidium iodide is simultaneously applied as a necrosis marker.
The resulting fluorescence diagrams that are obtained from a flow cytometry procedure with Annexin V and propidium iodide are shown below. The detection channel for green fluorescence is termed FL-I (FIG. 4), the one for red fluorescence FL-III (FIG. 4). The plot of cell number (counts) versus FL-I intensity is called histogram. The fluorescence signal of the sample is always accompanied by a second signal at low intensities (left in the histogram) which is background fluorescence. By plotting the red fluorescence versus the green fluorescence (FL-I/FL-III-plot) a diagram is obtained in which the cells can be divided into red, green and red+green fluorescent cells. After gating the signals into four quadrant regions (Q1-Q4) (FIG. 4), the percentages of the differently stained cells is indicated in the diagram.
FACS measurements were performed with a DAKO Galaxy Flow Cytometry System using the following experimental setup: Jurkat-cells were grown to a density of about 1*10^6 cells/ml. Apoptosis was induced by adding 1 μmol/l staurosporine (Stepczynska A et al, Staurosporine and conventional anticancer drugs induce overlapping, yet distinct pathways of apoptosis and caspase activation, Oncogene (2001) 20, 1193). After incubation for 4 h at 37° C., the cells were washed with cold PBS-buffer (140 mmol/l NaCl, 10 mmol/l KCl, 6.4 mmol/l Na2HPO4, 2 mmol/l KH2PO4) and resuspended in cold TES-buffer (5 mmol/l TES, 145 mmol/l NaCl). 10^6 cells in 100 μl buffer with 1 μl of a 0.5 mmol/l aqueous solution of complex 1 were incubated for 15 minutes at 37° C. Subsequently, cells were washed twice with 500 μl TES-buffer and the cells were resuspended in 400 μl TES-buffer. 100 μl of the probe were diluted with 900 μl of buffer and measured immediately. To discriminate against necroses, 10 μl propidiumiodide solution (250 μg/ml) were added directly before the measurement.

The test system of series [5] is cells which expose phosphatidylserine. The following applies: cited from earlier work.

For `c1ccc(CNCc2ccccn2)nc1` [DPA, 2,2-dipicolylamine], in series [1], the stability constant is reported as 10^5 (mol/l)^−1.
For `[18F]CCOc1cc(CN2CCNCCNCCNCC2)cc(CN2CCNCCNCCNCC2)c1` [compound 19], the “time the liver signal was stable” value in the series with apoptotic liver is given as “more than 3 h”. Further, the “accumulation in the apoptotic liver” value in the series on apoptotic liver (as early as 30 min after injection) was “accumulation in the apoptotic liver”. Moreover, in series [2], the “accumulation in irradiated tumor in comparison to the control tumor (PET)” value is reported as “increase in accumulation”.
With `CCN(CC)c1ccc2c(-c3ccc(NC(=S)NCCOCCOCCOc4cc(CN5CCNCCNCCNCC5)cc(CN5CCNCCNCCNCC5)c4)cc3C(=O)O)c3ccc(=[N+](CC)CC)cc-3oc2c1` [compound AB], in series [3], the “uptake / labeling of cells in confocal microscopy” value is “labeling of apoptotic and necrotic cells”. Also, the “labeling pattern in direct comparison with Annexin-V” value in series [4] was “labeling apoptotic cells in Q2 and necrotic cells in Q4”.
The compound `O=C(NCCOCCOCCOc1cc(COc2cc(CN3CCNCCNCCNCC3)cc(CN3CCNCCNCCNCC3)c2)cc(COc2cc(CN3CCNCCNCCNCC3)cc(CN3CCNCCNCCNCC3)c2)c1)c1ccc(-c2c3ccc(=O)cc-3oc3cc(O)ccc23)c(C(=O)O)c1` [compound we] registered a median fluorescence intensity in series [4] (induced apoptotic Jurkat cells, FIG. 11) of 130. Further, in series [4] (with versus without Zn^2+), the “effect of Zn^2+ complexation on binding” value was “same effect”.
As for “Anx V: phosphatidylserine-binding protein, fluorescent dye labeled, standard apoptosis sensor”, the “uptake / labeling of cells in confocal microscopy” value in series [3] is recorded as “green membrane staining”. In addition, the Kd in series [5] was less than 0.1 nM. For the same compound, the “labeling pattern in direct comparison with Annexin-V” value in series [4] was “labels apoptotic cells in Q1 and Q2”. In addition, the “% apoptosis (green)” value in series [4] (staurosporine treated Jurkat cells, green fluorescence only) turned out to be 22%. The “% necrosis (PI) (red)” value in series [4] (staurosporine treated Jurkat cells, propidium iodide red only) was 18%. Besides, the “% necrosis/ late apoptosis (red + green)” value in series [4] (staurosporine treated Jurkat cells, red + green) was found to be 25%.
